Measured values from patent publication US10189805B2, “Metabolism probes for therapy and diagnosis” (Vanderbilt University, priority 2014, dated 2019).
pIC50: −log10 of the molar value.

Biological target: ASCT2 (Homo sapiens (Human), UniProt Q15758)
Assay: 3H-glutamine uptake inhibition in live HEK-293 cells
Type: cell-based
Details: for pIC50: inhibition of 3H-glutamine (500 nM) uptake, HEK293 cells, 15 min at 37° C., pH 6.0; for potency compared with GPNA (in words): 3H-glutamine uptake, HEK-293 cells
Text: Initial compound libraries focused on 2, 3, and 4 substituted Nγ-glutamylanilides with aryl, alicyclic, and heterocyclic substitutions. To evaluate the biological activity, compounds were initially screened at a single concentration for their ability to inhibit ^3H-glutamine uptake in live HEK-293 cells, an established model suitable for evaluating ASCT2 activity. […] The present inventors prioritized the 2-substitution as a determinant of ASCT2 activity among this series.
The glutamine uptake assays in HEK293 cells were carried out in 96 well plates (CulturPlate-96, Perkin Elmer). Cells were plated at a density of 35,000 cells per well 24 hours prior to carrying out the assay. Each set of conditions is carried out in triplicate. The wells are washed three times with 100 uL of assay buffer at pH 6.0 (containing 137 mM NaCl, 5.1 mM KCl, 0.77 mM KH2PO4, 0.71 mM MgSO4.7H2O, 1.1 mM CaCl2, 10 mM D-glucose, and 10 mM HEPES). […] (500 nM) in the same buffer is added along with inhibitor and allowed to incubate for 15 min at 37° C. Following incubation, the H-glutamine/inhibitor is removed and the cells are washed three times with buffer. The cells are then lysed by the addition of 50 uL 1M NaOH. 150 uL of scintillation fluid (Microscint 40, Perkin Elmer) is added and the plates are counted on a scintillation counter (Topcount, Perkin Elmer).

ASCT2, sequence (Q15758 whole entry): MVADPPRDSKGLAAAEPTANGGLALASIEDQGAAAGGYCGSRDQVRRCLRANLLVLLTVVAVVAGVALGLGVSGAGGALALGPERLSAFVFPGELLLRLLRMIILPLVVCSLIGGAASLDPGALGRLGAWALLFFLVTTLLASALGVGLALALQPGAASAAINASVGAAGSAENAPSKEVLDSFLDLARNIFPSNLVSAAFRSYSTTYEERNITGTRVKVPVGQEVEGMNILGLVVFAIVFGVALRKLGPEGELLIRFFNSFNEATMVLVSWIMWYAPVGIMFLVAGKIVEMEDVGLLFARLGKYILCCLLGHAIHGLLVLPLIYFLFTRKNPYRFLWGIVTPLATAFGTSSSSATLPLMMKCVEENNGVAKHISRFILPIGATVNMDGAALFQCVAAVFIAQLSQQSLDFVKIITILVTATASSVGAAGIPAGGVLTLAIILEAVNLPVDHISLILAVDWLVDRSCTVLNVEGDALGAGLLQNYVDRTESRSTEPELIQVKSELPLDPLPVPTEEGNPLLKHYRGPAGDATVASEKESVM

| Compound | pIC50 | potency compared with GPNA (in words) |
| --- | --- | --- |
| N[C@@H](CCC(=O)Nc1ccc([N+](=O)[O-])cc1)C(=O)O [Compound 1, L-γ-glutamyl-p-nitroanilide, reference compound] | 3.02 |  |
| N[C@@H](CCC(=O)Nc1ccccc1-c1nc2ccccc2s1)C(=O)O [Compound 4, N^5-(2-(benzo[d]thiazol-2-yl)phenyl)-L-glutamine] | 3.36 | significantly greater potency than GPNA |
| N[C@@H](CCC(=O)Nc1ccccc1N1CCCCC1)C(=O)O [Compound 12] | 3.11 |  |
| N[C@@H](CCC(=O)Nc1ccccc1CCc1ccncc1)C(=O)O [Compound 16] | 3.08 |  |

The next lines start with the values.

| pIC50 | potency compared with GPNA (in words) | Compound |
| --- | --- | --- |
| 3.17 |  | N[C@@H](CCC(=O)NCc1ccccc1CS(=O)(=O)N1CCOCC1)C(=O)O [Compound 19] |
| 3.16 | significantly greater potency than GPNA | CN1CCN(Cc2ccccc2CNC(=O)CC[C@H](N)C(=O)O)CC1 [Compound 20, N5-(2-((4-methylpiperazin-1-yl)methyl)benzyl)-L-glutamine] |
